In US8883782B2, “Spiro-tetracyclic ring compounds as beta-secretase modulators and methods of use” (Amgen Inc., priority 2010, dated 2014):
Where two headings read alike, the source gives them in different places.

Key:
[1] = target: Beta Secretase enzyme (BACE) (Homo sapiens, UniProt P56817); assay: In vitro enzymatic BACE FRET (fluorescence resonance energy transfer) assay; format: biochemical; settings: average IC50, enzyme assay; read-out: BACE 1 FRET assay
Description: In Vitro Enzymatic Bace Fret (Fluorescence Resonance Energy Transfer) Assay (Enzyme Assay Data in the Example Table I)
The assay buffer used in this screen is 0.05 M acetate, pH 4.2, 10% DMSO final, 100 uM genapol (which is a nonionic detergent, below its Critical Micelle Concentration). […] This assay is effectively started by the addition of FRET substrate (50 nM) and the combination is incubated for one hour. The FRET assay is terminated with by addition of Tris buffer, which raises the pH to neutrality, and the fluorescence is determined. The FRET substrate is a peptide with commercially available fluorophore and quencher, on opposite sides of the BACE cleavage site.

[2] = tested on: Aβ40 in conditioned medium of cells stably expressing Amyloid Precursor Protein (APP); assay: In vitro BACE cell-based assay (Aβ40 in conditioned medium, sandwich ELISA)
Description: In Vitro BACE Cell-Based Assay
The cell-based assay measures inhibition or reduction of Aβ40 in conditioned medium of test compound treated cells expressing amyloid precursor protein.
Cells stably expressing Amyloid Precursor Protein (APP) were plated at a density of 40K cells/well in 96 well plates (Costar). The cells were cultivated for 24 hours at 37° C. and 5% CO2 in DMEM supplemented with 10% FBS. The test compounds were then added to cells in 10-point dose response concentrations with the starting concentration being either 100 μM or 10 μM. The compounds were diluted from stock solutions in DMSO and the final DMSO concentration of the test compounds on cells was 0.1%. […] The IC50 of the compound was calculated from the percent of control or percent inhibition of Aβ 40 as a function of the concentration of the test compound.
The sandwich ELISA to detect Aβ 40 was performed in 96 well microtiter plates, which were pre-treated with goat anti-rabbit IgG (Pierce). The capture and detecting antibody pair that were used to detect Aβ 40 from cell supernatants were affinity purified pAb40 (Biosource) and biotinylated 6E10 (Signet Labs Inc.), respectively. The optimal concentration for the pAb40 antibody was 3 μg/ml in Superblock/TBS (Pierce) that was supplemented with 0.05% Tween 20 (Sigma).
Cellular supernatants were incubated with the capture antibody for 3 h at 4° C., followed by 3 wash steps in TBS-tween (0.05%). The detecting antibody incubation was for 2 h at 4° C., again followed by the wash steps as described previously. The final readout of the ELISA is Time-Resolved Fluorescence (counts per minute) using Delfia reagents Streptavidin-Europium and Enhancement solutions (Perkin Elmer) and the Victor 2 multilabel counter (Perkin Elmer).

[3] = Homo sapiens, HEK293, average IC50, HEK cells, read-out: HEK cell assay
[4] = Homo sapiens, HEK293, average IC50, read-out: HEK cell assay
[5] = Homo sapiens, HEK293, read-out: HEK cell assay (uM)
[6] = average IC50, read-out: HEK cell assay

Beta Secretase enzyme (BACE), sequence (P56817 46-501, species assumed): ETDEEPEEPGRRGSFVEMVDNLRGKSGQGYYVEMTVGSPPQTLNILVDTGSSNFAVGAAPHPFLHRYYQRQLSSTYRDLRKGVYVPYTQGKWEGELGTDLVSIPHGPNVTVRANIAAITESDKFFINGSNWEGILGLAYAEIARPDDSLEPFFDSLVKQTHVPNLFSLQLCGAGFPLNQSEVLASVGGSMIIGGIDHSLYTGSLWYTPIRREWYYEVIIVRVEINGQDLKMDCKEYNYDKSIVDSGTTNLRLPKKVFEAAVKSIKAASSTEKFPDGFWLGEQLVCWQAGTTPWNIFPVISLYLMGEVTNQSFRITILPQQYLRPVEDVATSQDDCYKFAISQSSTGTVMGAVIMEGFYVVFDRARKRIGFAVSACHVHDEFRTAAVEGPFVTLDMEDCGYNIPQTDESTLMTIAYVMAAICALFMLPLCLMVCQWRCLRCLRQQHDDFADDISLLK

Molecule | IC50 [1] [nM] | IC50 [2, 4] [µM] | other results
NC1=N[C@@]2(CO1)c1cc(-c3cncc(F)c3)ccc1Oc1cnc(N3CCC(F)(F)C3)cc12 [Example 413, (5S)-3-(3,3-difluoro-1-pyrrolidinyl)-7-(5-fluoro-3-pyridinyl)spiro[chromeno[2,3-c]pyridine-5,4′-[1,3]oxazol]-2′-amine] | 0.8 |  | IC50 [2, 3]: 0.0056 µM
CC1(C#Cc2cc3c(cn2)Oc2ccc(-c4cccc(C#N)c4)cc2[C@@]32COC(N)=N2)COC1 [Example 164, 3-((5S)-2′-amino-3-((3-methyl-3-oxetanyl)ethynyl)spiro[chromeno[2,3-c]pyridine-5,4′-[1,3]oxazol]-7-yl)benzonitrile] | 2.3 | 0.0189 | 
NC1=N[C@@]2(CS1)c1cc(-c3cnccc3F)ccc1Oc1ncc(C3=CCCOC3)cc12 [Example 773, (5S)-3-(5,6-dihydro-2H-pyran-3-yl)-7-(4-fluoro-3-pyridinyl)spiro[chromeno[2,3-b]pyridine-5,4′-[1,3]thiazol]-2′-amine] | 0.8 | 0.014 | 
COc1cc(F)c2c(c1)[C@]1(COC(N)=N1)c1cc(Br)c(F)cc1O2 [Example 523, (4S)-2′-bromo-3′,5′-difluoro-7′-methoxyspiro[1,3-oxazole-4,9′-xanthen]-2-amine] | 884 |  | IC50 [2, 3]: 1.78 µM
COc1nc(C2=CCCOC2)cc2c1Oc1ccc(-c3cccnc3)cc1[C@@]21COC(N)=N1 [Example 841, (5S)-3-(5,6-dihydro-2H-pyran-3-yl)-1-methoxy-7-(3-pyridinyl)spiro[chromeno[2,3-c]pyridine-5,4′-[1,3]oxazol]-2′-amine] | 1.2 | 0.006 | 
CC#Cc1cncc(-c2ccc3c(c2)[C@@]2(CSC(N)=N2)c2cc(-c4ncccn4)cnc2O3)c1 [Example 789, (5S)-7-(5-(1-propyn-1-yl)-3-pyridinyl)-3-(2-pyrimidinyl)spiro[chromeno[2,3-b]pyridine-5,4′-[1,3]thiazol]-2′-amine] | 2.2 | 0.009 | 
CC1(C#Cc2cnc3c(c2)[C@]2(COC(N)=N2)c2c(ccc(-c4ccc(F)nc4)c2F)O3)COC1 [Example 342, (5R)-6-fluoro-7-(6-fluoro-3-pyridinyl)-3-((3-methyl-3-oxetanyl)ethynyl)spiro[chromeno[2,3-b]pyridine-5,4′-[1,3]oxazol]-2′-amine] | 2.4 | 0.016 | 
COc1cccc(Nc2ccc3c(c2)[C@@]2(COC(N)=N2)c2cc(C4=CCOCC4)cc(F)c2O3)c1 [Example 197, (4S)-7′-(3,6-dihydro-2H-pyran-4-yl)-5′-fluoro-N~2~′-(3-methoxyphenyl)spiro[1,3-oxazole-4,9′-xanthene]-2,2′-diamine] | 36.8 | 0.679 | 
NC1=N[C@@]2(CS1)c1cc(-c3cncc(F)c3)ccc1Oc1ncc(Br)cc12 [Example 965, (5S)-3-bromo-7-(5-fluoro-3-pyridinyl)spiro[chromeno[2,3-b]pyridine-5,4′-[1,3]thiazol]-2′-amine] | 23.3 |  | IC50 [2, 3]: 0.785 µM
COC(C)(C)C#Cc1ccc2c(c1)[C@@]1(CSC(N)=N1)c1cc(-c3cccnc3)cnc1O2 [Example 671, (5S)-7-(3-methoxy-3-methyl-1-butyn-1-yl)-3-(3-pyridinyl)spiro[chromeno[2,3-b]pyridine-5,4′-[1,3]thiazol]-2′-amine] | 19 |  | IC50 [2, 3]: 0.14 µM
CC1(C#Cc2cnc3c(c2)[C@]2(CSC(N)=N2)c2cc(-c4cnccn4)ccc2O3)COC1 [Example 666, (5S)-3-((3-methyl-3-oxetanyl)ethynyl)-7-(2-pyrazinyl)spiro[chromeno[2,3-b]pyridine-5,4′-[1,3]thiazol]-2′-amine] | 0.8 |  | IC50 [2, 3]: 0.013 µM
Cn1cc(-c2cc3c(cn2)Oc2ccc(-c4ccccc4)cc2[C@@]32COC(N)=N2)cn1 [Example 367, (5S)-3-(1-methyl-1H-pyrazol-4-yl)-7-phenylspiro[chromeno[2,3-c]pyridine-5,4′-[1,3]oxazol]-2′-amine] | 13.3 | 0.074 | 
NC1=N[C@@]2(CO1)c1cc(-c3cccnc3F)ccc1Oc1cnc(N3CC[C@H](F)C3)cc12 [Example 133, (S)-7-(2-fluoropyridin-3-yl)-3-((S)-3-fluoropyrrolidin-1-yl)-5′H-spiro[chromeno[2,3-c]pyridine-5,4′-oxazol]-2′-amine] |  |  | IC50 [2, 5]: 0.0096 µM
NC1=N[C@@]2(CO1)c1cc(-c3cccnc3F)ccc1Oc1c(F)cc(N3CC[C@@H](F)C3)cc12 [Example 279, (4S)-4′-fluoro-7′-(2-fluoro-3-pyridinyl)-2′-((3R)-3-fluoro-1-pyrrolidinyl)spiro[1,3-oxazole-4,9′-xanthen]-2-amine] |  | 0.0085 | 
NC1=N[C@]2(CO1)c1cc(-c3cccnc3F)ccc1Oc1c2cc(C2=CCCOC2)nc1F [Example 908, (5R)-3-(5,6-dihydro-2H-pyran-3-yl)-1-fluoro-7-(2-fluoro-3-pyridinyl)spiro[chromeno[2,3-c]pyridine-5,4′-[1,3]oxazol]-2′-amine] |  |  | IC50 [2, 3]: 0.609 µM
NC1=N[C@@]2(CS1)c1cc(Br)ccc1Oc1cnc(Cl)cc12 [Example 994, (5S)-7-bromo-3-chlorospiro[chromeno[2,3-c]pyridine-5,4′-[1,3]thiazol]-2′-amine] |  | ≥ 10 | 
2′-amino-9-fluoro-7-((3-methyl-3-oxetanyl)ethynyl)spiro[chromeno[2,3-c]pyridine-5,4′-[1,3]oxazol]-3-yl)benzonitrile [Example 694] |  |  | IC50 ([2]; average IC50, HEK cells, read-out: HEK cell assay): 1.09 µM
NC1=N[C@@]2(CO1)c1cc(-c3cccnc3F)ccc1Oc1c2cc(C2=COCCC2)nc1F [Example 807, (5S)-3-(3,4-dihydro-2H-pyran-5-yl)-1-fluoro-7-(2-fluoro-3-pyridinyl)spiro[chromeno[2,3-c]pyridine-5,4′-[1,3]oxazol]-2′-amine] |  | 3.06 | 
(4R)-4′-fluoro-2′-methoxy-7′-(5-pyrimidinyl)spiro[1,3-thiazole-4,9′-xanthen]-2-amine [Example 217] |  |  | IC50 [2, 6]: 1.57 µM
(4S)-4′-fluoro-2′-methoxy-7′-(5-pyrimidinyl)spiro[1,3-thiazole-4,9′-xanthen]-2-amine [Example 216] |  |  | IC50 [2, 6]: 0.045 µM
NC1=N[C@@]2(CO1)c1cc(-c3cccnc3F)ccc1Oc1cnc(N3CC[C@@H](F)C3)cc12 [Example 416, (5S)-7-(2-fluoro-3-pyridinyl)-3-((3R)-3-fluoro-1-pyrrolidinyl)spiro[chromeno[2,3-c]pyridine-5,4′-[1,3]oxazol]-2′-amine] |  |  | IC50 [2, 5]: 0.0049 µM
NC1=N[C@]2(CS1)c1cc(-c3cccnc3F)ccc1Oc1c2cc(-c2ccnc(F)c2)nc1F [Example 997, (5R)-1-fluoro-7-(2-fluoro-3-pyridinyl)-3-(2-fluoro-4-pyridinyl)spiro[chromeno[2,3-c]pyridine-5,4′-[1,3]thiazol]-2′-amine] |  | 1.18 | 
CC(C)(C)C#Cc1cnc2c(c1)[C@]1(COC(N)=N1)c1cc(-c3cncnc3)c(F)cc1O2 [Example 340, (5S)-3-(3,3-dimethyl-1-butyn-1-yl)-8-fluoro-7-(5-pyrimidinyl)spiro[chromeno[2,3-b]pyridine-5,4′-[1,3]oxazol]-2′-amine] |  |  | IC50 [2, 6]: 0.0843 µM
NC1=N[C@@]2(CO1)c1cc(-c3cccnc3F)ccc1Oc1c(F)cc(-c3ccccn3)cc12 [Example 196, (4S)-4′-fluoro-7′-(2-fluoro-3-pyridinyl)-2′-(2-pyridinyl)spiro[1,3-oxazole-4,9′-xanthen]-2-amine] |  | 0.0097 | 
NC1=N[C@@]2(CS1)c1cc(Br)ccc1Oc1cnc(Cl)cc12 [Example 588, (5S)-7-bromo-3-chlorospiro[chromeno[2,3-c]pyridine-5,4′-[1,3]thiazol]-2′-amine] |  |  | IC50 [2, 3]: 10 µM
NC1=N[C@@]2(CO1)c1cc(-c3cccnc3F)ccc1Oc1c(F)cc(C3=CCCOC3)cc12 [Example 129, (S)-2′-(5,6-dihydro-2H-pyran-3-yl)-4′-fluoro-7′-(2-fluoropyridin-3-yl)-5H-spiro[oxazole-4,9′-xanthen]-2-amine] |  | 0.0032 | 
NC1=N[C@@]2(CO1)c1cc(-c3cccc(F)n3)ccc1Oc1cnc(-c3ccnc(F)c3)cc12 [Example 632, (5S)-3-(2-fluoro-4-pyridinyl)-7-(6-fluoro-2-pyridinyl)spiro[chromeno[2,3-c]pyridine-5,4′-[1,3]oxazol]-2′-amine] |  |  | IC50 [2, 3]: 0.332 µM
